The numbers were not newly measured in patent US10780114B2, “Therapeutic agent for skin wound or rough skin” (JFE MINERAL COMPANY, LTD., priority 2015, dated 2020), which cites them from elsewhere.

One data set relates to skin. Conditions: in vivo.

As to `[Zn+2]` [zinc ions], in the data set with fibroblast, the “Zinc ion concentration that does not exhibit toxicity to a fibroblast” value is “not more than 500 μmol/L”. The “Zinc ion level leading to increased inflammatory cell infiltration in skin and remarkably delayed reepithelization” value with skin was “not less than 15 mmol/L”.
